Assay results taken from ChEMBL document CHEMBL3580659, “One-pot multicomponent synthesis of indole incorporated thiazolylcoumarins and their antibacterial, anticancer and DNA cleavage studies” (2015).
Activity calls are given as the source filed them. No cut-off for these calls is given here.

Experiments:
[1] = tested on: T47D; test: Cytotoxicity against human T47D cells assessed as cell growth level at 10 nM after 48 hrs by sulforhodamine B assay; type: functional
[2] = tested on: NCI-H322M; test: Cytotoxicity against human NCI-H322M cells assessed as cell growth level at 10 nM after 48 hrs by sulforhodamine B assay; type: functional
[3] = tested on: RPMI-8226; test: Cytotoxicity against human RPMI8226 cells assessed as cell growth level at 10 uM after 48 hrs by sulforhodamine B assay; type: functional
[4] = tested on: SK-OV-3; test: Cytotoxicity against human SKOV3 cells assessed as cell growth level at 10 uM after 48 hrs by sulforhodamine B assay; type: functional
[5] = tested on: SK-MEL-5; test: Cytotoxicity against human SK-MEL-5 cells assessed as cell growth level at 10 uM after 48 hrs by sulforhodamine B assay; type: functional
[6] = tested on: MDA-MB-468; test: Cytotoxicity against human MDA-MB-468 cells assessed as cell growth level at 10 nM after 48 hrs by sulforhodamine B assay; type: functional
[7] = tested on: SK-MEL-5; test: Cytotoxicity against human SK-MEL-5 cells assessed as cell growth level at 10 nM after 48 hrs by sulforhodamine B assay; type: functional
[8] = tested on: SF-268; test: Cytotoxicity against human SF268 cells after 48 hrs by sulforhodamine B assay; type: functional; conditions: SF-268, 48 h
[9] = tested on: RXF 393; test: Cytotoxicity against human RXF393 cells after 48 hrs by sulforhodamine B assay; type: functional; conditions: RXF 393, 48 h
[10] = tested on: SF-268; test: Cytotoxicity against human SF268 cells assessed as cell growth level at 100 nM after 48 hrs by sulforhodamine B assay; type: functional
[11] = tested on: NCI-H460; test: Cytotoxicity against human NCI-H460 cells assessed as cell growth level at 100 nM after 48 hrs by sulforhodamine B assay; type: functional
[12] = tested on: KM12; test: Cytotoxicity against human KM12 cells assessed as cell growth level at 100 uM after 48 hrs by sulforhodamine B assay; type: functional
[13] = tested on: UACC-257; test: Cytotoxicity against human UACC257 cells assessed as cell growth level at 10 nM after 48 hrs by sulforhodamine B assay; type: functional
[14] = tested on: ACHN; test: Cytotoxicity against human ACHN cells assessed as cell growth level at 10 nM after 48 hrs by sulforhodamine B assay; type: functional
[15] = tested on: HOP-92; test: Cytotoxicity against human HOP92 cells assessed as cell growth level at 100 nM after 48 hrs by sulforhodamine B assay; type: functional
[16] = tested on: SK-MEL-2; test: Cytotoxicity against human SK-MEL-2 cells after 48 hrs by sulforhodamine B assay; type: functional; conditions: SK-MEL-2, 48 h
[17] = tested on: COLO 205; test: Cytotoxicity against human COLO205 cells after 48 hrs by sulforhodamine B assay; type: functional; conditions: COLO 205, 48 h
[18] = tested on: ACHN; test: Cytotoxicity against human ACHN cells assessed as cell growth level at 100 nM after 48 hrs by sulforhodamine B assay; type: functional
[19] = tested on: PC-3; test: Cytotoxicity against human PC3 cells after 48 hrs by sulforhodamine B assay; type: functional; conditions: PC-3, 48 h
[20] = tested on: HOP-62; test: Cytotoxicity against human HOP62 cells assessed as cell growth level at 100 nM after 48 hrs by sulforhodamine B assay; type: functional
[21] = tested on: SK-MEL-28; test: Cytotoxicity against human SK-MEL-28 cells assessed as cell growth level at 10 nM after 48 hrs by sulforhodamine B assay; type: functional
[22] = tested on: CAKI-1; test: Cytotoxicity against human CAKI-1 cells assessed as cell growth level at 100 nM after 48 hrs by sulforhodamine B assay; type: functional
[23] = tested on: SF-539; test: Cytotoxicity against human SF539 cells assessed as cell growth level at 10 nM after 48 hrs by sulforhodamine B assay; type: functional
[24] = tested on: OVCAR-8; test: Cytotoxicity against human OVCAR8 cells assessed as cell growth level at 100 uM after 48 hrs by sulforhodamine B assay; type: functional
[25] = tested on: MCF7; test: Cytotoxicity against human MCF7 cells assessed as cell growth level at 100 uM after 48 hrs by sulforhodamine B assay; type: functional
[26] = tested on: LOX IMVI; test: Cytotoxicity against human LOXIMVI cells after 48 hrs by sulforhodamine B assay; type: functional
[27] = tested on: SF-295; test: Cytotoxicity against human SF295 cells assessed as cell growth level at 100 nM after 48 hrs by sulforhodamine B assay; type: functional
[28] = tested on: SK-MEL-28; test: Cytotoxicity against human SK-MEL-28 cells after 48 hrs by sulforhodamine B assay; type: functional; conditions: SK-MEL-28, 48 h
[29] = tested on: NCI-H322M; test: Cytotoxicity against human NCI-H322M cells assessed as cell growth level at 10 uM after 48 hrs by sulforhodamine B assay; type: functional
[30] = tested on: NCI-H522; test: Cytotoxicity against human NCI-H522 cells assessed as cell growth level at 100 nM after 48 hrs by sulforhodamine B assay; type: functional
[31] = tested on: Malme-3M; test: Cytotoxicity against human MALME-3M cells assessed as cell growth level at 1 uM after 48 hrs by sulforhodamine B assay; type: functional
[32] = tested on: HT-29; test: Cytotoxicity against human HT-29 cells assessed as cell growth level at 10 nM after 48 hrs by sulforhodamine B assay; type: functional
[33] = tested on: 786-0; test: Cytotoxicity against human 786-0 cells assessed as cell growth level at 1 uM after 48 hrs by sulforhodamine B assay; type: functional
[34] = tested on: PC-3; test: Cytotoxicity against human PC3 cells assessed as cell growth level at 1 uM after 48 hrs by sulforhodamine B assay; type: functional
[35] = tested on: Escherichia coli; test: Induction of DNA cleavage of Escherichia coli pUC18 plasmid DNA at 50 ug/ml after 2 hrs by agarose gel elctrophoresis method
[36] = tested on: HL-60(TB); test: Cytotoxicity against human HL-60(TB) cells after 48 hrs by sulforhodamine B assay; type: functional; conditions: HL-60, 48 h
[37] = read-out: LC50 (the source's name)
[38] = read-out: pLC50 (the source's name) (converted)

Molecule `O=c1oc2ccccc2cc1-c1csc(N/N=C/c2c[nH]c3ccccc23)n1` has an Activity [1] of 101%, an Activity [2] of 103% and an Activity [3] of -33.83%. The Activity [4] was 62.24%, the Activity [5] was 69.78% and the Activity [6] was 94%. For the same molecule, the Activity [7] was 96%, the GI50 ([8]; read-out: GI50) was 1.93 µM and the CC50 [8, 37] was > 100 µM. The TGI ([8]; read-out: TGI) was 8.77 µM, the GI50 ([8]; read-out: pGI50 (converted)) was 1.95 µM and the CC50 [8, 38] was > 100 µM. The TGI ([8]; read-out: pTGI (converted)) was 8.71 µM, the GI50 ([9]; read-out: GI50) was 1.97 µM and the CC50 [9, 37] was 33.9 µM. For the same molecule, the TGI ([9]; read-out: TGI) was 4.77 µM, the GI50 ([9]; read-out: pGI50 (converted)) was 1.95 µM and the CC50 [9, 38] was 33.9 µM. The TGI ([9]; read-out: pTGI (converted)) was 4.79 µM, the Activity [10] was 88% and the Activity [11] was 93%. The Activity [12] was -52%, the Activity [13] was 96% and the Activity [14] was 99%. The Activity [15] was 94%, the GI50 ([16]; read-out: GI50) was 1.61 µM and the CC50 [16, 37] was 8.17 µM. The TGI ([16]; read-out: TGI) was 3.62 µM, the GI50 ([16]; read-out: pGI50 (converted)) was 1.62 µM and the CC50 [16, 38] was 8.13 µM. It also gave a TGI ([16]; read-out: pTGI (converted)) of 3.63 µM, a GI50 ([17]; read-out: GI50) of 1.92 µM and an LC50 (concentration killing 50% of cells) ([17]; read-out: LC50) of 6.55 µM. The TGI ([17]; read-out: TGI) was 3.55 µM, the GI50 ([17]; read-out: pGI50 (converted)) was 1.91 µM and the LC50 (concentration killing 50% of cells) ([17]; read-out: pLC50 (converted)) was 6.61 µM. The TGI ([17]; read-out: pTGI (converted)) was 3.55 µM, the Activity [18] was 97% and the GI50 ([19]; read-out: GI50) was 0.828 µM. For the same molecule, the CC50 [19, 37] was 7.63 µM, the TGI ([19]; read-out: TGI) was 2.66 µM and the GI50 ([19]; read-out: pGI50 (converted)) was 0.832 µM. For the same molecule, the CC50 [19, 38] was 7.59 µM, the TGI ([19]; read-out: pTGI (converted)) was 2.63 µM and the Activity [20] was 110%. The Activity [21] was 94%, the Activity [22] was 88% and the Activity [23] was 95%. For the same molecule, the Activity [24] was -8%, the Activity [25] was -60% and the GI50 ([26]; read-out: GI50) was 1.93 µM. The CC50 [26, 37] was 6.71 µM, the TGI ([26]; read-out: TGI) was 3.6 µM and the GI50 ([26]; read-out: pGI50 (converted)) was 1.91 µM. For the same molecule, the CC50 [26, 38] was 6.76 µM, the TGI ([26]; read-out: pTGI (converted)) was 3.63 µM and the Activity [27] was 97%. The GI50 ([28]; read-out: GI50) was 3.96 µM, the CC50 [28, 37] was > 100 µM and the TGI ([28]; read-out: TGI) was 96.9 µM. For the same molecule, the GI50 ([28]; read-out: pGI50 (converted)) was 3.98 µM, the CC50 [28, 38] was > 100 µM and the TGI ([28]; read-out: pTGI (converted)) was 97.7 µM. For the same molecule, the Activity [29] was 15.29%, the Activity [30] was 107% and the Activity [31] was 93%. It also gave an Activity [32] of 106%, an Activity [33] of 80% and an Activity [34] of 84%. The Activity [35] was “Active”, the GI50 ([36]; read-out: GI50) was 0.45 µM and the CC50 [36, 37] was > 100 µM. For the same molecule, the TGI ([36]; read-out: TGI) was 7.64 µM, the GI50 ([36]; read-out: pGI50 (converted)) was 0.457 µM and the CC50 [36, 38] was > 100 µM. It also gave a TGI ([36]; read-out: pTGI (converted)) of 7.59 µM.
